PMC9030254, “Target Hopping from Protein Kinases to PXR: Identification of Small-Molecule Protein Kinase Inhibitors as Selective Modulators of Pregnane X Receptor from TüKIC Library” (Cells, 2022)

Legend:
Experiment in all cases: Kinase profiling
Format in all cases: biochemical
JAK2 = target: T1, JAK2 (Homo sapiens, UniProt O60674)
T1 construct: purchased ProQinase (Freiburg, Germany)
Method: (§1) The analysis was performed by ProQinase (Freiburg, Germany).

CSK = target: T2, CSK (Homo sapiens, UniProt P41240)
T2 construct: purchased ProQinase (Freiburg, Germany)
Method: as §1

EPHB2 = target: T3, EPHB2 (Homo sapiens, UniProt P29323)
T3 construct: purchased ProQinase (Freiburg, Germany)
T3 sequence (P29323 19-1055): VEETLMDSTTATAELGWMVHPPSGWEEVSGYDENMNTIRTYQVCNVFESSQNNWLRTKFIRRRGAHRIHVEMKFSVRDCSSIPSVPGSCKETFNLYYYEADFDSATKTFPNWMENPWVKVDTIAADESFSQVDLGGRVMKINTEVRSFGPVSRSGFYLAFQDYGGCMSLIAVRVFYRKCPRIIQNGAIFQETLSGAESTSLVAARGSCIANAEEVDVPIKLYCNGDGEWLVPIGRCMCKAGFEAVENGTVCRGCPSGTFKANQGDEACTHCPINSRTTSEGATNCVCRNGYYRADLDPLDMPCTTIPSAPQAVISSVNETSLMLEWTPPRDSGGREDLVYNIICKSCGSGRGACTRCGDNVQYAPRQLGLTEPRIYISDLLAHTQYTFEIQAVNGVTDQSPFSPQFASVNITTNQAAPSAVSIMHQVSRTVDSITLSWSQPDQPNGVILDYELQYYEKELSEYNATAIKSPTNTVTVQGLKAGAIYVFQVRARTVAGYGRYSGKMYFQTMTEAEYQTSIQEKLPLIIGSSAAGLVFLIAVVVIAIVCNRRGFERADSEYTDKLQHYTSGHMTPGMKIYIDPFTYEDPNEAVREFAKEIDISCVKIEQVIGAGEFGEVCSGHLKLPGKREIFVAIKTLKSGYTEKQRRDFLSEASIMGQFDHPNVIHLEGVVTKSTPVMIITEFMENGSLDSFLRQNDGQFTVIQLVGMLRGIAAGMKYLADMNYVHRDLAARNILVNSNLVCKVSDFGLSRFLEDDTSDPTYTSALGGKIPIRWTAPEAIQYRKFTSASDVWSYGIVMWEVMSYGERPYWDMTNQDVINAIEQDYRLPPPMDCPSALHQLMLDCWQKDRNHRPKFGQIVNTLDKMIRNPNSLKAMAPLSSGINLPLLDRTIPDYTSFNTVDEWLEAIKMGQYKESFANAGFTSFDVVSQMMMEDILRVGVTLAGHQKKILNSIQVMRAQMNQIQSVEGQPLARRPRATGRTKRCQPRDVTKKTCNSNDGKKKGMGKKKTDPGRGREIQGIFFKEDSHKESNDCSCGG
Method: as §1

EPHA2 = target: T4, EPHA2 (Homo sapiens, UniProt P29317)
T4 construct: purchased ProQinase (Freiburg, Germany)
Method: as §1

NEK2 = target: T5, NEK2 (Homo sapiens, UniProt P51955)
T5 construct: purchased ProQinase (Freiburg, Germany)
T5 sequence (P51955 1-445): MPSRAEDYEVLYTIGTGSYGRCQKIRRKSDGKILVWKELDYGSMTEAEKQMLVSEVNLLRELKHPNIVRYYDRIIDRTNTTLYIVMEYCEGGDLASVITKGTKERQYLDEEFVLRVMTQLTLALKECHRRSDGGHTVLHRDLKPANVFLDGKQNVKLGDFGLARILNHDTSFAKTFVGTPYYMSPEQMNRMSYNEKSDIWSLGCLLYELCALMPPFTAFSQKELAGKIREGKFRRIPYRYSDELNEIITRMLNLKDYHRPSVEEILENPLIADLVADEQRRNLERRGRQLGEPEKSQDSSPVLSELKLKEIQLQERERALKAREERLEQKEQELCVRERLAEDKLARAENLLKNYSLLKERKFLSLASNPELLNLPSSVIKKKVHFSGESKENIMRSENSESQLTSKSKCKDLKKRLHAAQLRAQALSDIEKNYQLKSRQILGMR
Method: as §1

FRK = target: T6, FRK (Homo sapiens, UniProt P42685)
T6 construct: purchased ProQinase (Freiburg, Germany)
Method: as §1

CDK13/CycK = target: T7, CDK13/CycK (Homo sapiens, UniProt Q14004)
T7 construct: purchased ProQinase (Freiburg, Germany)
Method: as §1

PKA = target: T8, PKA (Homo sapiens, UniProt P17612)
T8 construct: purchased ProQinase (Freiburg, Germany)
Method: as §1

AKT3 = target: T9, AKT3 (Homo sapiens, UniProt Q9Y243)
T9 construct: purchased ProQinase (Freiburg, Germany)
Method: as §1

AuroraB = target: T10, AuroraB (Homo sapiens, UniProt Q96GD4)
T10 construct: purchased ProQinase (Freiburg, Germany)
Method: as §1

VEGFR1 = target: T11, VEGFR1 (Homo sapiens, UniProt P17948)
T11 construct: purchased ProQinase (Freiburg, Germany)
Method: as §1

SNARK = target: T12, SNARK (Homo sapiens, UniProt Q9H093)
T12 construct: purchased ProQinase (Freiburg, Germany)
T12 sequence (Q9H093 1-628): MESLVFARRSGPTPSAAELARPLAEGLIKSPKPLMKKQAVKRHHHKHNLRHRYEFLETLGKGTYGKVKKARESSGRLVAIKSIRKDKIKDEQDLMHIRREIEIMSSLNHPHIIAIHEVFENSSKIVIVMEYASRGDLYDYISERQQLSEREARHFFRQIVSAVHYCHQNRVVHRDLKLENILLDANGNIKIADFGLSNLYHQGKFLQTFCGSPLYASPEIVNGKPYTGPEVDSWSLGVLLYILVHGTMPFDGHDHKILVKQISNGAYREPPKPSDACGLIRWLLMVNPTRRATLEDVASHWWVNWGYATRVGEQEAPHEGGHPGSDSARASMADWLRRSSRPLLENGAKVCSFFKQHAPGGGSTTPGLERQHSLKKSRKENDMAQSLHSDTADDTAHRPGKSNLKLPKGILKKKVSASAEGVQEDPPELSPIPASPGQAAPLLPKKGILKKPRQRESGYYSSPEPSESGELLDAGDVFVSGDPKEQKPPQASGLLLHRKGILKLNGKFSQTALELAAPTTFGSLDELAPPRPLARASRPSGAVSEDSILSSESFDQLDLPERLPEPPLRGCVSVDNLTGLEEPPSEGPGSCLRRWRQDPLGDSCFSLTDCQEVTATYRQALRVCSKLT
Method: as §1

RON = target: T13, RON (Homo sapiens, UniProt Q04912)
T13 construct: purchased ProQinase (Freiburg, Germany)
Method: as §1

T13 sequence (Q04912 25-1400): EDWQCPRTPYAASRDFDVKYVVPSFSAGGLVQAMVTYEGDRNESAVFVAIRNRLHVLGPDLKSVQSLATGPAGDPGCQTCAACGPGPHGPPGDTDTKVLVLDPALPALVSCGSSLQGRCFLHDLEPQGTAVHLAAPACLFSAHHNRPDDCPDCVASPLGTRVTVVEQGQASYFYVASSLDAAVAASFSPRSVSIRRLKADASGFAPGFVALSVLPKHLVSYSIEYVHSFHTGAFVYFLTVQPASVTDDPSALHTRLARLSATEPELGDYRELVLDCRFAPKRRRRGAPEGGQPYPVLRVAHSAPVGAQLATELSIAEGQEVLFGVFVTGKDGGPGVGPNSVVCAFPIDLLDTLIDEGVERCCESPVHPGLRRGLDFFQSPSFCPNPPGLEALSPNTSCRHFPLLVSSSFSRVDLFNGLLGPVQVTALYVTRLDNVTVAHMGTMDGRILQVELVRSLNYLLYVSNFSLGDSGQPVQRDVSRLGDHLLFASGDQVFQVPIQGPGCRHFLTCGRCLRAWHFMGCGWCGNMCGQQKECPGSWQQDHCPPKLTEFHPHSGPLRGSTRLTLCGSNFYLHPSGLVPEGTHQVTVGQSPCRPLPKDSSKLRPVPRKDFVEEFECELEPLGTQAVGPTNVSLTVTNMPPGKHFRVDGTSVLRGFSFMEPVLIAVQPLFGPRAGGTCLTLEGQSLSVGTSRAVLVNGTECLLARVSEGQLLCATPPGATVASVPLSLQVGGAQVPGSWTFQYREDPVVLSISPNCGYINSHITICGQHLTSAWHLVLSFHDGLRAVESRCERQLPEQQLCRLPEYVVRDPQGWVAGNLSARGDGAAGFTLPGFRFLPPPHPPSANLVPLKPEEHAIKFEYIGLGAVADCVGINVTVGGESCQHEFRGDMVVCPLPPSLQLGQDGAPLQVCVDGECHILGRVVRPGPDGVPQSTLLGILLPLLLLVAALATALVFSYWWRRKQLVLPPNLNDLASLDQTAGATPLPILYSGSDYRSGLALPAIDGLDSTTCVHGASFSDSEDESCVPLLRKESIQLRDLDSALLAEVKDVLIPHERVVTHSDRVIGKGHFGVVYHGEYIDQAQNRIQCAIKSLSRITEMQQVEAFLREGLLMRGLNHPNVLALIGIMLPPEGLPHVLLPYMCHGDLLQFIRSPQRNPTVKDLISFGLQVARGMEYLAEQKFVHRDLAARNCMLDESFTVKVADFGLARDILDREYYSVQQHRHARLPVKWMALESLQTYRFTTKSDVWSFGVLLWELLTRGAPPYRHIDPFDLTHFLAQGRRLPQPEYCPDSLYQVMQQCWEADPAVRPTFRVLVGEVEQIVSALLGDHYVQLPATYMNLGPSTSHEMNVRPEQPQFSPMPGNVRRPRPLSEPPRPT
T6 sequence (P42685 whole entry): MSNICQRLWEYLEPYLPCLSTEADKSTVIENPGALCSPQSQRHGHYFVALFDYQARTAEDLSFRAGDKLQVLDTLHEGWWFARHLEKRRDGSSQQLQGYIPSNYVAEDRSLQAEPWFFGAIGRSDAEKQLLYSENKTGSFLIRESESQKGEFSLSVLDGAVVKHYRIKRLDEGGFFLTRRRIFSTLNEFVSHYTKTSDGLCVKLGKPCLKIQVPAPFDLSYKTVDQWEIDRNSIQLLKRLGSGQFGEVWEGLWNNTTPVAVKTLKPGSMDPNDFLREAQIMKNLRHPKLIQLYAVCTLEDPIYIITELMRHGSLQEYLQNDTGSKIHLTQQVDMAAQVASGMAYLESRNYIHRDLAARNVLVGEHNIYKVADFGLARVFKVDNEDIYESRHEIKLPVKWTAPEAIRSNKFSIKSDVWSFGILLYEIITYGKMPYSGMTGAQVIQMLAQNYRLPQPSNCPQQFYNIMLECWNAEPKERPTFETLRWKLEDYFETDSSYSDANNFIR
T11 sequence (P17948 27-1338): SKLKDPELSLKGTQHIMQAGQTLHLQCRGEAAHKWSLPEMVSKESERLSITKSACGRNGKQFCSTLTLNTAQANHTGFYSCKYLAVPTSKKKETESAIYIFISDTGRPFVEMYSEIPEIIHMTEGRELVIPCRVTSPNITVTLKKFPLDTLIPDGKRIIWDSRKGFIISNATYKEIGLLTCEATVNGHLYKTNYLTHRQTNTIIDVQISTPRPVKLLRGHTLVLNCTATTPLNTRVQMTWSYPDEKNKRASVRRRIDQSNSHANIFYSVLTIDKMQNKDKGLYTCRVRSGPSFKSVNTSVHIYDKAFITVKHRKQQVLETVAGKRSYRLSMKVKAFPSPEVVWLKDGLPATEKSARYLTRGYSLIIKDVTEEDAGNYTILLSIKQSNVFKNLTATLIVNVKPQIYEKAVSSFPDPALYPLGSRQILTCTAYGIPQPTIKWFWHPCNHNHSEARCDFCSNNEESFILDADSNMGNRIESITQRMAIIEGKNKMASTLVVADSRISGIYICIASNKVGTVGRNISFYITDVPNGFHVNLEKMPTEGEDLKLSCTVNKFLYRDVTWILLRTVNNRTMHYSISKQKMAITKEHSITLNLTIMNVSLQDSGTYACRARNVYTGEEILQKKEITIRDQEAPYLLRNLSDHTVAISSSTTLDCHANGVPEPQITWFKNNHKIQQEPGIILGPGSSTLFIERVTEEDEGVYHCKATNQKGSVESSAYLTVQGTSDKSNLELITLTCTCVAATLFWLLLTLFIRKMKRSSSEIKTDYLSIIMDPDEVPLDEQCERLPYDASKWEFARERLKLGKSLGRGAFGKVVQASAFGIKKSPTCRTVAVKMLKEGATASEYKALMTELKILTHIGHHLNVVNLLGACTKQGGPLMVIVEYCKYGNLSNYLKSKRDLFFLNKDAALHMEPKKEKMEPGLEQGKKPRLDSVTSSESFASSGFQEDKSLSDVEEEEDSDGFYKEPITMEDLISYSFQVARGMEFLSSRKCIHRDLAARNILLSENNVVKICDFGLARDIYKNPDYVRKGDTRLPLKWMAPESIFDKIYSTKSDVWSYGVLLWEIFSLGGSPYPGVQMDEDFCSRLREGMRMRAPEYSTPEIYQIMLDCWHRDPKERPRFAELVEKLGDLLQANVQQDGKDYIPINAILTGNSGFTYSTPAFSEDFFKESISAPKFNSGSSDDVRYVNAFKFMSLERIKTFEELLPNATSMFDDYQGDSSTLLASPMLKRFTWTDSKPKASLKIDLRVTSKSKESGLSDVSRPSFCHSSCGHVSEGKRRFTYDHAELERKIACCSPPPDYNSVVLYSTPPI
T4 sequence (P29317 24-976): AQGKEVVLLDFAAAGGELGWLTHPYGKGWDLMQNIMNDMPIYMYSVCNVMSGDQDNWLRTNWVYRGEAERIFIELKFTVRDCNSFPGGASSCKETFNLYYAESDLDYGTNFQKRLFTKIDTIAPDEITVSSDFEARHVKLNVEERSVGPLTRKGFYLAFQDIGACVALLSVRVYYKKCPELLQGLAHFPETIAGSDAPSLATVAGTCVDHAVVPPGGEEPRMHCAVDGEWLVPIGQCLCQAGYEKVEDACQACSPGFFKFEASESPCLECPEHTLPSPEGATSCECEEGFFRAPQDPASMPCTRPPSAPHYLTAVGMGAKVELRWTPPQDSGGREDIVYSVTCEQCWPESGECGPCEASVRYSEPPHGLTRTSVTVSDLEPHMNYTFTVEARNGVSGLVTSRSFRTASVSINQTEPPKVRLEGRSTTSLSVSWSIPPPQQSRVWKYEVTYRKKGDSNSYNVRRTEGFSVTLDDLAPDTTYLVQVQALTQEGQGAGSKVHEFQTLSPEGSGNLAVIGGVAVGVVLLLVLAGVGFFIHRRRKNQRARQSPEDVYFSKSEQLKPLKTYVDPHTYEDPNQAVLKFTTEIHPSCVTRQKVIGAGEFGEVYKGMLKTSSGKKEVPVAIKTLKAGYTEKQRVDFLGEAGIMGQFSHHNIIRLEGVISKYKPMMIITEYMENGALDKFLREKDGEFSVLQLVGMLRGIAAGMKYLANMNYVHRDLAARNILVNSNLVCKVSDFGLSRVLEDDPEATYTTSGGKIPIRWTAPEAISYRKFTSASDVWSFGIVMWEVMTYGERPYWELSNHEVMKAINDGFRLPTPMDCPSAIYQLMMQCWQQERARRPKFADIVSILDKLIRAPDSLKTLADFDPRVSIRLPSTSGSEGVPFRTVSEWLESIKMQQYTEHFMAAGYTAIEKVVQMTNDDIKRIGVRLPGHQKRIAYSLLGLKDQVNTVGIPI
T9 sequence (Q9Y243 whole entry): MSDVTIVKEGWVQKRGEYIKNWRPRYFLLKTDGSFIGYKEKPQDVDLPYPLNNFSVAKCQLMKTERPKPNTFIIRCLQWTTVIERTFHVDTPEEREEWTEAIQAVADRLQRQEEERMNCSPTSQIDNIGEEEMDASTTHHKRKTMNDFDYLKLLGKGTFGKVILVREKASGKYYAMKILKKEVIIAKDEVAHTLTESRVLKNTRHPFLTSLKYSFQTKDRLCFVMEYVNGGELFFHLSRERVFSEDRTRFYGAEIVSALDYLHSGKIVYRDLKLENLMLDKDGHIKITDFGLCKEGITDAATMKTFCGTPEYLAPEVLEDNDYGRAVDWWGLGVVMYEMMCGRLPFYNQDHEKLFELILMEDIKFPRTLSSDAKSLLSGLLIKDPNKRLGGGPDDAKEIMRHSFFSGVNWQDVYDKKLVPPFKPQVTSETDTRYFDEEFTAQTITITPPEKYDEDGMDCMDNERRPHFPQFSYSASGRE
T10 sequence (Q96GD4 whole entry): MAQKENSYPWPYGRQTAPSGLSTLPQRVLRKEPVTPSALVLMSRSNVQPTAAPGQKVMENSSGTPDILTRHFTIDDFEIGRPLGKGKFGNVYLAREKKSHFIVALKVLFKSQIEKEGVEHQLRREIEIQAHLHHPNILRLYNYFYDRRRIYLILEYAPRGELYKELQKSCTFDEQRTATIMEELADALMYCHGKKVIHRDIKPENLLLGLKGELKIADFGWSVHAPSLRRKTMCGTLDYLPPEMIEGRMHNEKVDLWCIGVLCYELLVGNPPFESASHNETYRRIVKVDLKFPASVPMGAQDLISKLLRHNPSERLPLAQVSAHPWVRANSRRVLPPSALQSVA

SMILES | Residual activity (JAK2; 1.0E-05 M) | Residual activity (JAK2; 1.0E-06 M) | Residual activity (CSK; 1.0E-05 M) | Residual activity (CSK; 1.0E-06 M) | Residual activity (EPHB2; 1.0E-05 M) | Residual activity (EPHB2; 1.0E-06 M) | Residual activity (EPHA2; 1.0E-05 M) | Residual activity (EPHA2; 1.0E-06 M) | Residual activity (NEK2; 1.0E-05 M) | Residual activity (NEK2; 1.0E-06 M) | Residual activity (FRK; 1.0E-05 M) | Residual activity (FRK; 1.0E-06 M) | Residual activity (CDK13/CycK; 1.0E-05 M) | Residual activity (CDK13/CycK; 1.0E-06 M) | inhibition at 10 µM (PKA) [%] | Residual activity (PKA; 1.0E-05 M) | Residual activity (PKA; 1.0E-06 M) | Residual activity (AKT3; 1.0E-05 M) | Residual activity (AKT3; 1.0E-06 M) | Residual activity (AuroraB; 1.0E-05 M) | other results
O=C(Nc1ccc(F)c(Nc2ccc3c(c2)CCCCC3=O)c1)c1cccc(F)c1 [Compound 109] | 89 % of control | 90 % of control | 109 % of control | 112 % of control | 84 % of control | 86 % of control | 107 % of control | 105 % of control | 101 % of control | 96 % of control | 102 % of control | 107 % of control | 92 % of control | 88 % of control | ≥ 50 | 49 % of control | 86 % of control | 102 % of control | 95 % of control | 85 % of control | Residual activity (AuroraB; 1.0E-06 M): 101 % of control; Residual activity (VEGFR1; 1.0E-05 M): 93 % of control; Residual activity (VEGFR1; 1.0E-06 M): 101 % of control; Residual activity (SNARK; 1.0E-05 M): 98 % of control; Residual activity (SNARK; 1.0E-06 M): 105 % of control; Residual activity (RON; 1.0E-05 M): 83 % of control; Residual activity (RON; 1.0E-06 M): 89 % of control
O=C(Cc1ccccc1)Nc1ccc(F)c(Nc2ccc3c(c2)CCCCC3=O)c1 [Compound 100] | 85 % of control | 94 % of control | 96 % of control | 106 % of control | 86 % of control | 93 % of control | 94 % of control | 116 % of control | 97 % of control | 105 % of control | 104 % of control | 107 % of control | 84 % of control | 88 % of control | ≥ 50 | 21 % of control | 97 % of control | 100 % of control | 114 % of control | 90 % of control | Residual activity (AuroraB; 1.0E-06 M): 101 % of control; Residual activity (VEGFR1; 1.0E-05 M): 93 % of control; Residual activity (VEGFR1; 1.0E-06 M): 100 % of control; Residual activity (SNARK; 1.0E-05 M): 92 % of control; Residual activity (SNARK; 1.0E-06 M): 107 % of control; Residual activity (RON; 1.0E-05 M): 77 % of control; Residual activity (RON; 1.0E-06 M): 104 % of control
